# Results from patent US8410178B2, “CIS 3,4-dihydroxy-2-(3-methylbutanoyl)-5-(3-methylbutyl)-4-(4-methylpentanoyl)cyclopent-2-en-1-derivatives, substantially enantiomerically pure compositions and methods” (KinDex Therapeutics, LLC, priority 2010, dated 2013).
# Legend:
# [1] = tested on: THP-1 cells; experiment: TNF-α- and LPS-mediated inflammatory factors in THP-1 cells; format: cell-based, human; conditions: TNF-α and LPS-induced, 50, 25, 12.5 and 3.125 μM
# Experimental: The anti-inflammatory effect of (+)-KDT501 was evaluated in human monocytic THP-1 cells.
# THP-1 cells (ATCC, Manassas, Va.) were maintained in RPMI1640 in the presence of 10% serum according to manufacturer's instructions. The cells were pre-incubated with (+)-KDT501 at varying concentrations (50, 25, 12.5 and 3.125 μM) for one hour, then stimulated with TNF-α(10 ng/ml; Sigma, St. Louis, Mo.) or E. coli LPS (1 μg/ml; Sigma, St. Louis, Mo.) overnight (16-20 hours). MMP-9 levels in the medium were measured using an ELISA kit (GE Healthcare, Piscataway, N.J.), and cytokines were assayed using a Milliplex MAP human cytokine/chemokine kit (Millipore, Billerica, Mass.). Analytes were quantified using a Luminex 100™ IS. Data were analyzed using a five-parameter logistic method.
# [2] = target: T1, peroxisome proliferator-activated receptor gamma (PPARγ) (Homo sapiens, UniProt P37231); experiment: Competitive binding to PPARγ ([3H]rosiglitazone)
# T1 sequence (P37231 1-505): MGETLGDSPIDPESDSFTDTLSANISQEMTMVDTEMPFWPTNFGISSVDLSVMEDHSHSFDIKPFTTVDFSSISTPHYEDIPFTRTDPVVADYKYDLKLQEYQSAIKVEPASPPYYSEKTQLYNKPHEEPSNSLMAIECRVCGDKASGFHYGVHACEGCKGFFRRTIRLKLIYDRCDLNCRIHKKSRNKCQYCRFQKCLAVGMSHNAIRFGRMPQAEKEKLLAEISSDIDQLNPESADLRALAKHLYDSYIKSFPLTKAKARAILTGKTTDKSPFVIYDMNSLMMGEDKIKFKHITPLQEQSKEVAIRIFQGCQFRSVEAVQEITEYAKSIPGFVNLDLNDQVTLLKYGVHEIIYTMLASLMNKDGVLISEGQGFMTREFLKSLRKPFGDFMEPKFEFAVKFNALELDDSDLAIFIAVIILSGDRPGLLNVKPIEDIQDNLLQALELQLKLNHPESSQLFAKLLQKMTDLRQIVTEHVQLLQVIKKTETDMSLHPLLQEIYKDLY
# [3] = target: T2, GPR120 (Homo sapiens, UniProt Q5NUL3); experiment: GPR120 activity, intracellular calcium response in CHO-K1/GPR120/Gα15 cells; format: cell-based; conditions: CHO-K1/GPR120/Gα15 cells; calcium response; unit inferred; read-out: GPR120 agonistic activity EC50
# T2 sequence (Q5NUL3 1-361): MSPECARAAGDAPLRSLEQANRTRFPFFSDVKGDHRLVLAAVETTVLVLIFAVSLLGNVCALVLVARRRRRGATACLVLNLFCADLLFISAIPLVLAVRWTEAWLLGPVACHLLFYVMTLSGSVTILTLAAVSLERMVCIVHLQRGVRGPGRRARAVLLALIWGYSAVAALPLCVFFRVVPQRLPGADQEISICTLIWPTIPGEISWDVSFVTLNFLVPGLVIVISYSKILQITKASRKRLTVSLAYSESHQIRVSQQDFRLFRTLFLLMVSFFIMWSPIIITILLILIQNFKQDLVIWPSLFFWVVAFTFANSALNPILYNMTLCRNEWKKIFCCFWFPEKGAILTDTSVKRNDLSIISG
# Experimental: GPR120 activity was measured by intracellular calcium response. CHO-K1/GPR120/Gα15 cells were regularly passaged to maintain optimal cell health and cultured in Ham's F12 supplemented with 10% fetal bovine serum, 200 μg/mL zeocin, and 100 μg/mL hygromycin. Cells were seeded in a 384-well black-wall, clear-bottom plate at a density of 20,000 cell per well in 20 μL of growth medium 18 hours prior to the start of the experiment, and maintained at 37° C./5% CO2. Cells were loaded with calcium-4, and baseline fluorescence readings were obtained from 1 second to 20 seconds using a fluorescent imaging plate reader (FLIPR). At 20 seconds, (+)-KDT501 (5× final concentration) was added to the reading plate, and the fluorescence signal was monitored for 100 seconds (21 seconds to 120 seconds). α-linolenic acid (LA), eicosapentaenoic acid (EPA), and docosahexaenoic acid (DHA) were used as controls. Data acquisition and analysis was performed using ScreenWorks (version 3.1) and exported to Excel. The average fluorescence value for the first 20 seconds was calculated as the baseline reading. The relative fluorescent unit (ΔRFU) intensity values were calculated with the maximal fluorescent units (21 s to 120 s), subtracting the baseline reading. Data analysis wizard written by GenScript was used to analyze EC50. Dose response curves of antagonist were fitted using the GraphPad Prism 4 four parameter logistic equation Y=Bottom+(Top−Bottom)/(1+10^((LogIC50−X)*HillSlope)), where X is the logarithm of concentration and Y is response.
# [4] = tested on: Zucker diabetic fatty (ZDF) rats; experiment: Glucose and triglyceride levels in a rat diabetes model; format: in vivo
# Experimental: 64 six-week-old male Zucker diabetic fatty (ZDF) rats with glucose levels of 175-300 mg/dL were randomized and divided into eight dosing groups: 1) vehicle only (0.5% methylcellulose (w/v), 0.2% Tween 80 (w/v); negative control), 2) (+)-KDT501 25 mg/kg, 3) (+)-KDT501 50 mg/kg, 4) (+)-KDT501 100 mg/kg, 5) (+)-KDT501 200 mg/kg, 6) metformin 200 mg/kg (positive control), 7) metformin 200 mg/kg and (+)-KDT501 100 mg/kg, and 8) pioglitazone 30 mg/kg (positive control). Drugs were administered orally twice a day for 33 days.
# Animals were weighed at randomization and once per week thereafter, with administration dosages calculated based on the most recent body weight measurements. Blood samples were collected by tail bleed three days prior to randomization, at randomization, and at days 15 and 29 after the start of treatment. These blood samples were used to perform whole blood glucose evaluations using a glucometer, as well as to measure blood triglyceride levels. Body composition was tested by qNMR on days 2 and 29 after the start of treatment. An oral glucose tolerance test (OGTT) was performed on days 31 and 32 after the start of treatment. Rats underwent an overnight fast prior to OGTT, and tail bleeds for glucose and insulin were performed pre-glucose bolus and at 15, 30, 60, 90, and 120 minutes post-glucose bolus. The glucose bolus was 2 g dextrose/kg of body weight. On day 33, a cardiac puncture was performed for PK analysis.
smiles,measurement,setting,value
"CC(C)CCC(=O)[C@@]1(O)C(O)=C(C(=O)CC(C)C)C(=O)[C@@H]1CCC(C)C.[K] [(+)-KDT501, (+)-(4S,5R)-3,4-dihydroxy-2-(3-methylbutanoyl)-5-(3-methylbutyl)-4-(4-methylpentanoyl)cyclopent-2-en-1-one potassium salt]",expression of IL-1β,[1],inhibited
same,expression of MCP-1,[1],inhibited
same,expression of MIP-1α,[1],inhibited
same,expression of MMP-9,[1],inhibited
same,expression of RANTES,[1],inhibited
same,IC50,[2],8.4 µM
same,Ki,[2],4.5 µM
same,nH,"[2]; binding target PPARγ, competitor ligand Rosiglitazone",1.1
same,EC50,[3],30.3 µM
same,whole blood glucose levels,[4]; 200 mg/kg orally twice a day,significant decrease
same,triglyceride levels,"[4]; 200 mg/kg orally twice a day, days 15 and 29",significant decrease
same,whole blood glucose levels,"[4]; 25, 50, or 100 mg/kg orally twice a day",nearly the same as those observed in negative control rats
